# Values quoted from earlier work, collected in article PMC5742115, “Pharmacophore Modeling and in Silico/in Vitro Screening for Human Cytochrome P450 11B1 and Cytochrome P450 11B2 Inhibitors” (Frontiers in Chemistry, 2017).
# Like-named read-outs stand apart in the source and are kept apart here.
# Columns and labels:
# CYP11B2 = settings: reported activity, supplementary Table 1, read-out: CYP11B2 IC50, cited from earlier work
# CYP11B1 = settings: reported activity, supplementary Table 1, read-out: CYP11B1 IC50, cited from earlier work
# [1] = ref Pinto-Bazurco Mendieta et al., 2013
smiles,measurement,setting,value
O=C1CCc2cc(-c3cccnc3)cc(Cl)c2N1 [CHEMBL457640],IC50,"CYP11B2; ref Lucas et al., 2008b",0.0038 µM
same,IC50,"CYP11B1; ref Lucas et al., 2008b",1.67 µM
COc1cncc(-c2cc3c4c(c2)CCC(=O)N4CCC3)c1 [CHEMBL1765208],IC50,"CYP11B2; ref Lucas et al., 2011",0.0009 µM
same,IC50,"CYP11B1; ref Lucas et al., 2011",0.545 µM
c1ccc2cc(-n3ccnc3)ccc2c1 [CHEMBL195996],IC50,"CYP11B2; ref Voets et al., 2005",0.039 µM
same,IC50,"CYP11B1; ref Voets et al., 2005",1.32 µM
Fc1ccc2c(c1)CC/C2=C/c1cccc2cnccc12 [CHEMBL363849],IC50,"CYP11B2; ref Ulmschneider et al., 2005b",0.065 µM
same,IC50,"CYP11B1; ref Ulmschneider et al., 2005b",0.026 µM
O=c1c2ccccc2oc2c(Br)ccc(Cn3ccnc3)c12 [CHEMBL78322],IC50,"CYP11B2; ref Gobbi et al., 2013",0.0085 µM
same,IC50,"CYP11B1; ref Gobbi et al., 2013",0.0067 µM
Clc1ccc2c(c1)CC/C2=C\c1cccnc1 [CHEMBL383807],IC50,"CYP11B2; ref Ulmschneider et al., 2005a",0.026 µM
same,IC50,"CYP11B1; ref Ulmschneider et al., 2005a",1.47 µM
COC(=O)CCc1cncn1Cc1ccc(Br)cc1 [CHEMBL592614],IC50,"CYP11B2; ref Roumen et al., 2010",0.004 µM
same,IC50,"CYP11B1; ref Roumen et al., 2010",0.057 µM
O=C1CCc2cc(C(c3ccccc3F)n3ccnc3)cc3c2N1CC3 (stereo not shown) [CHEMBL2163642],IC50,"CYP11B2; ref Yin et al., 2012",0.019 µM
same,IC50,"CYP11B1; ref Yin et al., 2012",0.04 µM
COc1ccc2c(Cl)c(-c3cccnc3)ccc2c1Cl [CHEMBL381014],IC50,"CYP11B2; ref Voets et al., 2005",0.028 µM
same,IC50,"CYP11B1; ref Voets et al., 2005",4.9 µM
O=C1CCc2cc(-c3cncc(F)c3)cc3c2N1CC3 [CHEMBL1765212],IC50,"CYP11B2; ref Lucas et al., 2011",0.0044 µM
same,IC50,"CYP11B1; ref Lucas et al., 2011",1.29 µM
c1cncc(-c2ccc3c(c2)CCCC3)c1 [CHEMBL461457],IC50,"CYP11B2; ref Lucas et al., 2008b",0.029 µM
same,IC50,"CYP11B1; ref Lucas et al., 2008b",1.98 µM
N#Cc1ccc(Cn2cncc2CO)cc1 [CHEMBL599601],IC50,"CYP11B2; ref Roumen et al., 2010",0.029 µM
same,IC50,"CYP11B1; ref Roumen et al., 2010",0.285 µM
O=C1CCc2cc(C(C3CCC3)n3ccnc3)cc3c2N1CC3 (stereo not shown) [CHEMBL2163640],IC50,"CYP11B2; ref Yin et al., 2012",0.0042 µM
same,IC50,"CYP11B1; ref Yin et al., 2012",0.0034 µM
S=C1CCc2cc(-c3cccnc3)cc(Cl)c2N1 [CHEMBL508155],IC50,"CYP11B2; ref Lucas et al., 2008b",0.0042 µM
same,IC50,"CYP11B1; ref Lucas et al., 2008b",0.769 µM
Brc1ccc(Cn2cncc2-c2ccccc2)cc1 [CHEMBL597173],IC50,"CYP11B2; ref Roumen et al., 2010",0.0051 µM
same,IC50,"CYP11B1; ref Roumen et al., 2010",0.007 µM
Clc1ncc(Cn2ccnc2)cc1-c1cccs1 [CHEMBL2011430],IC50,"CYP11B2; ref Hille et al., 2011a",0.416 µM
same,IC50,"CYP11B1; ref Hille et al., 2011a",0.073 µM
O=C1CCc2cc(C(c3ccncc3)c3cccc(Cl)c3)cc3c2N1CC3 (stereo not shown) [CHEMBL2312960],IC50,"CYP11B2; ref Yin et al., 2013",0.051 µM
same,IC50,"CYP11B1; ref Yin et al., 2013",0.646 µM
COc1ccccc1-c1cncc(-c2cc3c4c(c2)CCN4C(=O)CC3)c1 [CHEMBL1765226],IC50,"CYP11B2; ref Lucas et al., 2011",0.0024 µM
same,IC50,"CYP11B1; ref Lucas et al., 2011",0.128 µM
CCC(C)Oc1ccc(Cn2ccnc2)c2c(=O)c3ccccc3oc12 (stereo not shown) [CHEMBL2333333],IC50,"CYP11B2; ref Gobbi et al., 2013",0.0153 µM
same,IC50,"CYP11B1; ref Gobbi et al., 2013",0.0131 µM
COc1ccc2c(c1)CC/C2=C\c1cccnc1 [CHEMBL176609],IC50,"CYP11B2; ref Ulmschneider et al., 2005a",0.034 µM
same,IC50,"CYP11B1; ref Ulmschneider et al., 2005a",1.45 µM
Cc1cncc(Cc2ccc(-c3ccccc3)nc2)c1 [CHEMBL2417553],IC50,"CYP11B2; ref Emmerich et al., 2013",0.033 µM
same,IC50,"CYP11B1; ref Emmerich et al., 2013",0.002 µM
FC(F)(F)c1cncc(Cc2ccc(-c3ccccc3)nc2)c1 [CHEMBL2417613],IC50,"CYP11B2; ref Emmerich et al., 2013",0.115 µM
same,IC50,"CYP11B1; ref Emmerich et al., 2013",0.038 µM
N#Cc1ccc([C@H]2CCCCc3cncn32)c(-c2ccc(F)cc2)c1 [CHEMBL3099704],IC50,"CYP11B2; ref Meredith et al., 2013",0.0003 µM
same,IC50,"CYP11B1; ref Meredith et al., 2013",0.0004 µM
COc1cncc(-c2cc3c4c(c2)CCN4C(=O)CC3)c1 [CHEMBL1765207],IC50,"CYP11B2; ref Lucas et al., 2011",0.0006 µM
same,IC50,"CYP11B1; ref Lucas et al., 2011",0.247 µM
Cc1nnc2n1-c1c(Cl)cc(-c3cnccc3C3CC3)cc1CC2 [CHEMBL2331703],IC50,"CYP11B2; ref Blass, 2013a",0.048 µM
same,IC50,"CYP11B1; ref Blass, 2013a",6.93 µM
C=C(c1ccncc1)c1cc2c3c(c1)CCN3C(=O)CC2 [CHEMBL2312949],IC50,"CYP11B2; ref Yin et al., 2013",0.096 µM
same,IC50,"CYP11B1; ref Yin et al., 2013",1.23 µM
Oc1ccc2ccc(-c3cncnc3)c(Cl)c2c1 [CHEMBL2420686],IC50,CYP11B2; [1],0.022 µM
same,IC50,CYP11B1; [1],2.43 µM
c1ccc(-c2ccc(Cc3cccnc3)cn2)cc1 [CHEMBL2417633],IC50,"CYP11B2; ref Emmerich et al., 2013",0.322 µM
same,IC50,"CYP11B1; ref Emmerich et al., 2013",0.032 µM
N#Cc1ccc2c(c1)CC/C2=C/c1ncc[nH]1 [CHEMBL175091],IC50,"CYP11B2; ref Ulmschneider et al., 2005b",0.0357 µM
same,IC50,"CYP11B1; ref Ulmschneider et al., 2005b",0.0123 µM
